How the values were obtained:
Plasmodium falciparum [1] = test: NOVARTIS: Inhibition of Plasmodium falciparum 3D7 (drug-susceptible) proliferation in erythrocyte-based infection assay; format: functional, organism-based; details: Plasmodium falciparum, 3D7
Plasmodium falciparum [2] = test: NOVARTIS: Inhibition of Plasmodium falciparum W2 (drug-resistant) proliferation in erythrocyte-based infection assay; format: functional, organism-based; details: Plasmodium falciparum, W2; read-out: EC50
[3] = NOVARTIS: Cytotoxicity against human hepatocellular carcinoma cell line (Huh7); format: toxicity, cell-based, Huh-7; details: Huh7 cells (hepatocellular carcinoma cell line)

Row | SMILES | EC50 (Plasmodium falciparum [1]) [µM] | EC50 (Plasmodium falciparum [2]) [µM] | CC50 [3] [µM]
1 | NC1(C(=O)O)CCc2cc(C(=O)O)ccc21 (centres undefined) | > 1.16 | 0.833 | > 10
2 | O=[N+]([O-])c1ccc2nc(Nc3ccc(Cl)c(Cl)c3)c(Nc3ccc(Cl)c(Cl)c3)nc2c1 | 7.23 | 7.04 | > 85.4
3 | Oc1ccc(-c2nc(-c3ccc4oc5ccc(-c6[nH]c(-c7ccc(O)cc7)nc6-c6ccccc6)cc5c4c3)c(-c3ccccc3)[nH]2)cc1 | 3.3 | 8.28 | > 100
4 | CC(C)c1ccc2c(c1)c1c3c([n+](C)ccn32)CCC1 | 1.72 | 2.63 | 31.8
5 | CCc1cccc(NC(=O)CCCn2c(=O)c3cccn3c3ccccc32)c1 | > 1.56 | 0.826 | > 10
6 | COC(=O)[C@@H]1C[C@@H](NC(=O)c2ccc(OC)cc2OC)CN1C/C(C)=C/c1ccccc1 | 0.432 | 0.821 | > 10
7 | CCN(c1ccc(F)cc1)S(=O)(=O)c1ccc2[nH]cc(C(=O)NC(C)(C)C)c(=O)c2c1 | > 1.6 | 0.83 | > 10
8 | CC(=O)OC1CCC2(C)C(CCC3C2CCC2(C)C3CC(O)C2(O)C(C)=O)C1 (centres undefined) | > 1.25 | > 0.826 | > 10
9 | CCc1ccc(-n2c(C(CC)N(CCC(C)C)C(=O)Nc3ccc(Cl)c(Cl)c3)nc3ccccc3c2=O)cc1 (centres undefined) | > 1.25 | > 0.83 | > 10
10 | Nc1nc(N)c2cc(S(=O)(=O)N3CCSCC3)ccc2n1 | 0.117 | > 1.25 | 15.1
11 | COc1ccccc1N1CCN([C@@H]2CCN(Cc3cccnc3)C[C@@H]2CCC(=O)N2CCCC2)CC1 | 1.08 | 0.81 | > 10
12 | O=C(Nc1ccc(Cl)c(C(F)(F)F)c1)NC1CC2CCC(C1)N2C1CCCC1 (centres undefined) | 0.541 | 0.81 | > 10
13 | CCCOc1ccc(C=Nc2ccc(S(=O)(=O)Nc3ccccn3)cc2)cc1 | 1.41 | 0.813 | > 10
14 | CCNC(=O)NCCSc1nc(-c2ccc(OC)cc2)c(-c2ccc(OC)cc2)n1CC | > 1.66 | > 0.812 | > 10
15 | O=C(CSc1cn(CCNC(=O)c2ccc(F)cc2)c2ccccc12)Nc1ccccc1F | > 12.5 | > 8.09 | > 98.9
16 | Cc1ccc2c(c1)N(CC(=O)NC1CCCCC1C)C(=O)CO2 (centres undefined) | 2.01 | > 0.815 | > 10
17 | CC(C)CNC(=O)c1cnc(NCCCN(C)C)nc1NCC1CCCCC1 | 0.334 | 0.815 | > 10
18 | COC(=O)c1cccc(NC(=O)/C(=C\c2cccc([N+](=O)[O-])c2)NC(=O)c2ccccc2OC)c1 | > 1.67 | > 0.814 | > 10
19 | Cc1ccc(NC(=O)N2CCN(CCN(Cc3ccc(F)cc3)C(=O)c3ccccc3C)CC2)cc1 | > 1.74 | 0.818 | > 10
20 | O=[N+]([O-])c1ccc(-c2cn3nc(C(F)(F)F)sc3n2)cc1 | 1.05 | 0.818 | > 10
21 | COc1ccc(/C=C/C(=O)Nc2ccncc2)cc1OC | 0.593 | 0.828 | > 10
22 | CCCCCC[P+](N(CCC)CCC)(N(CCC)CCC)N(CCC)CCC | 0.0704 | 0.0956 | 1.16
23 | O=C(CSc1nc2ccccc2c(=O)n1C1CC1)Nc1cc(C(F)(F)F)ccc1Cl | 0.719 | 8.11 | > 100

Row | SMILES | EC50 (Plasmodium falciparum [1]) [µM] | EC50 (Plasmodium falciparum [2]) [µM] | CC50 [3] [µM]
24 | CCCCCN(C(=O)Nc1ccccc1OC)C(CC)c1nc2ccccc2c(=O)n1-c1ccccc1OC (centres undefined) | 0.78 | 0.835 | > 10
25 | CCOc1ccc(NC(=O)c2ccc(I)o2)cc1 | 4.85 | 5.79 | 69.6
26 | CC1CCN(C(=O)C(C)N(c2ccccc2)S(C)(=O)=O)CC1 (centres undefined) | 7.2 | 8.32 | > 100
27 | CCOC(=O)C1=C(C)N(CCNc2ncc(C(F)(F)F)cc2Cl)C(=O)CC1 | 7.67 | 8.35 | > 100
28 | COc1cc(NC(C)CCCN(Cc2ccc(OC)c(OC)c2)C(=O)CCC2CCCC2)c2ncccc2c1 (centres undefined) | 0.687 | 0.333 | 3.99
29 | CCCCN(CCCC)[P+](N(CCCC)CCCC)(N(CCCC)CCCC)N(CCCC)CCCC | 0.224 | 0.0654 | 0.784
30 | CCOc1ccccc1-n1c(C(C)N(CCc2ccccc2)C(=O)c2ccc(Br)cc2)nc2ccccc2c1=O (centres undefined) | > 1.25 | 0.834 | > 10
31 | CCCCc1ccc(C(=O)N(CC(=O)Nc2cc(C(C)(C)C)nn2-c2ccc(Cl)cc2)C(C)C)cc1 | > 1.38 | > 0.832 | > 10
32 | CCc1ccc2c(c1)c1nnc(SCC(=O)NCCOC)nc1n2C | > 1.25 | > 0.838 | > 10
33 | CCc1nnc2n1N(C(C)=O)C(c1ccc(Cl)c(Cl)c1)=C(C(C)=O)S2 | > 1.25 | > 0.835 | > 10
34 | CN(C)CCNC(=O)c1ccc(-c2cccc3c2sc2ccccc23)nc1N1CCN(CCO)CC1 | 0.388 | 0.452 | 5.32
35 | Cc1cc(-c2cncnc2C2CCN(C(=O)c3cc(C(C)C)n[nH]3)CC2)on1 | > 1.25 | > 0.849 | > 10
36 | CC1CN(C)C(C)CC1=NOC(=O)c1ccc(Cl)c(Cl)c1 (centres undefined) | > 1.25 | > 0.848 | > 10
37 | CCCCCCN(C(=O)COCc1ccccc1)C(CC)c1nc2ccccc2c(=O)n1-c1ccc(F)c(Cl)c1 (centres undefined) | 0.607 | 0.821 | > 10
38 | Cc1cnc(Sc2ccccn2)c([N+](=O)[O-])c1 | > 12.5 | 6.13 | 72.9
39 | Nc1c(C(=O)c2ccc(Br)cc2)sc2nc(-c3cccnc3)ccc12 | 1.3 | > 1.09 | > 13
40 | COc1ccccc1Cc1nc2ccccc2nc1SCC(=O)Nc1cccc(C(F)(F)F)c1 | > 5.52 | > 8.34 | > 100
41 | CN(C)CCNc1ccc2ncc(-c3ccsc3)n2n1 | > 1.25 | > 0.846 | > 10
42 | COc1cc(NC(C)CCCN(Cc2ccccc2OC)C(=O)Nc2cccc(F)c2)c2ncccc2c1 (centres undefined) | > 1.66 | 0.84 | > 10
43 | CC1(C)C2C[C@@H](COC(=O)NC(=O)c3ccccc3)[C@]3(C)[C@H](C21)C3(Cl)Cl (some centres undefined) | 1.14 | 0.951 | > 11.2
44 | Cn1nc(C(=O)N2CCCC2)c2c1CCC(NCc1cnc3ccccc3c1)C2 (centres undefined) | > 1.25 | > 0.843 | > 10
45 | C=CCNCc1cc(-c2cc(OC)ccc2OC)ccc1O | 1.1 | 0.84 | > 10
46 | Cc1ccc(Nc2nc(N)c3ccccc3n2)cc1Cl | 0.527 | 0.755 | 8.92

Row | SMILES | EC50 (Plasmodium falciparum [1]) [µM] | EC50 (Plasmodium falciparum [2]) [µM] | CC50 [3] [µM]
47 | CCOc1ccc(-c2noc(-c3ccncc3)n2)cc1OCC | > 1.25 | > 0.847 | > 10
48 | COc1ccc2nc3cc(Cl)ccc3c(Nc3ccc(O)cc3)c2c1 | 0.809 | 0.845 | > 10
49 | COc1ccccc1NC(=O)CSc1nc2cccnc2n1-c1ccccc1OC | 0.833 | 0.848 | > 10
50 | CC1=NN(c2ccc(C(=O)O)cc2)C(=O)/C1=C\c1ccc([N+](=O)[O-])o1 | > 1.25 | > 0.839 | > 10
51 | O=C(NCCc1ccccc1)c1cnc(NCCCn2ccnc2)nc1Nc1ccccc1 | 0.552 | 0.843 | > 10
52 | CCCCCN(C(=O)COCc1ccccc1)C(CC)c1nc2ccccc2c(=O)n1-c1cccc(Cl)c1 (centres undefined) | 0.411 | 0.847 | > 10
53 | CC(C)c1ccc(-c2cncc(N[C@@H](C)c3ccccc3)n2)cc1 | > 0.558 | 0.846 | > 10
54 | CC(=O)N(C1=C(N2CCOCC2)C(=O)c2ccccc2C1=O)c1ccc(F)cc1 | 0.0129 | 0.014 | 0.173
55 | O=[N+]([O-])c1cccc(CNc2ccc(F)c(Cl)c2)c1 | > 12.5 | 8.05 | > 95.6
56 | COc1ccc(CCNc2nc(NCCC3CCCN3C)ncc2C(=O)NCc2ccccc2)cc1OC (centres undefined) | 1.06 | > 0.802 | > 10
57 | CCOC(=O)c1ccc(NC(=O)CSc2nc(NCc3ccccc3)c3ccccc3n2)cc1 | > 1.14 | > 0.836 | > 10
58 | CCCn1c(C=NNc2nc3ccccc3[nH]2)nc2ccccc21 | 5.56 | 5.11 | 62.8
59 | Cc1ccc(C(=O)c2c(C)oc3ccc(O)cc23)cc1 | > 1.25 | > 0.839 | > 10
60 | CCCCCCOC(=O)C1=C(C)NC(=O)NC1c1ccccc1F (centres undefined) | > 6.76 | > 8.31 | > 100
61 | Cc1ccc(C)c(Nc2nc(NCC3CCCO3)c3ccccc3n2)c1 (centres undefined) | 1.53 | 1.54 | 18.6
62 | CC(=NNc1nc2ccccc2s1)c1ccc([N+](=O)[O-])cc1 | > 0.965 | > 0.848 | > 10
63 | O=C(NNS(=O)(=O)c1ccccc1[N+](=O)[O-])c1ccccc1 | > 1.25 | > 0.833 | > 10
64 | Cc1nc(N)sc1C(=O)NN=Cc1cccc(Br)c1 | > 1.25 | 0.819 | > 10
65 | CC(C)CCNC(=O)C1CSC(c2ccc(F)cc2)N1C(=O)c1ccc(Cl)cc1Cl (centres undefined) | > 12.5 | 8.18 | > 100
66 | CN(C)c1ccc(/C=C/c2cc(/C=C/c3ccc(N(C)C)cc3)[n+]3ccccc3n2)cc1 | 1.34 | 0.811 | > 10
67 | O=C(Oc1ccccc1N1C(=O)C2C3C=CC(C3)C2C1=O)c1ccc([N+](=O)[O-])cc1 (centres undefined) | > 9.74 | 8.07 | > 100
68 | CC1CC2=C(CC1CNCCCN(C)C)C(C)(C)CCC2 (centres undefined) | 0.25 | 0.844 | > 10
